Experimental findings from US11253634B2, “Cationic steroidal antibiotic compositions for the treatment of dermal tissue” (BRIGHAM YOUNG UNIVERSITY, priority 2016, dated 2022) are described below.

For one data set, the system named is Pseudomonas aeruginosa. Put plainly: MIC/MBC against mixed-species biofilms: P. aeruginosa. Particulars: mixed-species biofilms grown 22 hours, 20 hours of treatment. Type of data set: cell-based. The method, then: (§1) Several CSA compounds were tested against Pseudomonas aeruginosa and Staphylococcus aureus mixed-species biofilms grown for an initial 22 hours and subjected to 20 hours of treatment.

The subject of the next data set is Staphylococcus aureus. The data set is described as follows: MIC/MBC against mixed-species biofilms: S. aureus. Type of data set: cell-based. The following applies: mixed-species biofilms grown 22 hours, 20 hours of treatment. The protocol: as §1
Data set [1] has as its system 74 clinical isolates (All). The data set is described as follows: Broth microdilution susceptibility testing, all clinical isolates. Type of data set: cell-based. The following applies: All (74) isolates; no unit in column head (MIC levels of table in μg/ml). The method, then:
(§2) CSA-131 was tested in vitro against a set of clinical isolates representing bacterial species commonly associated with hospital-acquired infections. Antimicrobial susceptibility testing for 74 clinical isolates was performed.
Background: Dilution methods test growth across graded concentrations, often in twofold steps.

Data set [2] concerns Staphylococcus aureus (10). The data set is described as follows: Broth microdilution susceptibility testing, S. aureus isolates. Type of data set: cell-based. The following applies: unit inferred, unit assumed. The method, then:
as §2

Data set [3] deals with Streptococcus Pneumoniae (10). The data set is described as follows: Broth microdilution susceptibility testing, S. pneumoniae isolates. Type of data set: cell-based. The following applies: unit inferred, unit assumed. The method, then: as §2
In a further data set the test system is Haemophilus spp. (10). The data set is described as follows: Broth microdilution susceptibility testing, Haemophilus spp. isolates. Type of data set: cell-based, H. influenza and H. parainfluenzae. Particulars: unit inferred, unit assumed. The protocol:
as §2

For a further data set, the system named is Enterobacteriaceae (22). Put plainly: Broth microdilution susceptibility testing, Enterobacteriaceae isolates. Type of data set: cell-based. The following applies: unit inferred, unit assumed. The method, then:
as §2

Another data set deals with Non-fermenters (22). The data set is described as follows: Broth microdilution susceptibility testing, non-fermenter isolates. The following applies: unit inferred, unit assumed. Type of data set: cell-based, A. baumannii species complex, P. aeruginosa, S. maltophilia. The method, then:
as §2

The test system of a further data set is primary human MSC cells. The data set is described as follows: Gene expression (q-PCR, inflammation-related mRNA panel) after CSA treatment of primary cells. The format is cell-based. The following applies: 8 hours treatment, CSA-13 at 5.0 μM; for Fold Regulation, IL1A: gene IL1A (Interleukin-1 alpha); for Fold Regulation, IL1A / Fold Regulation, IL1B / Fold Regulation, IRAK2 / Fold Regulation, NFKBIA / Fold Regulation, TLR2 / Fold Regulation, TLR4 / Fold Regulation, TLR6 / Fold Regulation, TLR8 / Fold Regulation, TLR9 / Fold Regulation, TNF / Fold Regulation, TNFRSF1A: q-PCR; for Fold Regulation, IL1B: gene IL1B (Interleukin-1 beta); for Fold Regulation, IRAK2: gene IRAK2 (Interleukin-1 receptor-associated kinase 2); for Fold Regulation, NFKB1: gene NFKB1, q-PCR; for Fold Regulation, NFKB2: gene NFKB2, q-PCR; for Fold Regulation, NFKBIA: gene NFKBIA; for Fold Regulation, TLR2: gene TLR2 (Toll-like receptor 2); for Fold Regulation, TLR4: gene TLR4 (Toll-like receptor 4); for Fold Regulation, TLR6: gene TLR6 (Toll-like receptor 6); for Fold Regulation, TLR8: gene TLR8 (Toll-like receptor 8); for Fold Regulation, TLR9: gene TLR9 (Toll-like receptor 9); for Fold Regulation, TNF: gene TNF (Tumor necrosis factor); for Fold Regulation, TNFRSF1A: gene TNFRSF1A.

Data set [4] in a line: Solubility of CSA-131 salt in cyanoacrylate. The format is physicochemical. The method, then: CSA-131 (bis-DNS salt) was used in this Example. This material is a stable, colorless solid and is insoluble in cyanoacrylate. To ensure uniform distribution of CSA-131 in the cyanoacrylate polymer, the solid was micronized using a jet mill to give an average particle size of 200 nm. The resulting powder was added to cyanoacrylate to give a 5% (w/w) mixture, which was vigorously agitated. No immediate change in viscosity was observed, and the mixture remained non-viscous for more than 15 min.

The next data set deals with IL-6. Put plainly: Kidney IL-6 levels in P. aeruginosa pneumonia model. The format is in vivo, C57/BL6 mice. The following applies: 24 hours post-infection. From the text:
IL-6 is a marker of systemic inflammation. Female C57/BL6 mice were infected in the respiratory tract with a non-lethal dose of P. aeruginosa as a model of pneumonia.

Converted amounts (≈) assume the structure as drawn.

Regarding `CCCCCCCCCCCCCNCCC[C@@H](C)[C@H]1CC[C@H]2[C@@H]3[C@H](OCCCN)C[C@@H]4C[C@H](OCCCN)CC[C@]4(C)[C@H]3C[C@H](OCCCN)[C@]12C` [CSA-138], in the data set on Pseudomonas aeruginosa, the “MBC P. aeruginosa” value turned out to be 6.25 µg/mL (≈ 8.36 µM) and the “MIC P. aeruginosa” value turned out to be 3.125 µg/mL (≈ 4.18 µM). Moreover, in the data set on Staphylococcus aureus, the “MBC S. aureus” value was found to be 3.125 µg/mL (≈ 4.18 µM) and the “MIC S. aureus” value stood at 1.56 µg/mL (≈ 2.09 µM).
With `CCCCCCCCCCOC(=O)CC[C@@H](C)[C@H]1CC[C@H]2[C@@H]3[C@H](OC(=O)CCN)C[C@@H]4C[C@H](OC(=O)CCN)CC[C@]4(C)[C@H]3C[C@H](OC(=O)CCN)[C@]12C` [CSA-144], in the data set with Pseudomonas aeruginosa, the “MBC P. aeruginosa” value is 50 µg/mL (≈ 65.6 µM) and the “MIC P. aeruginosa” value worked out at 12.5 µg/mL (≈ 16.4 µM). Besides, in the data set with Staphylococcus aureus, the “MBC S. aureus” value was 3.125 µg/mL (≈ 4.1 µM) and the “MIC S. aureus” value stood at 3.125 µg/mL (≈ 4.1 µM).
For `CCCCCCCCCCCCNCCC[C@@H](C)[C@H]1CC[C@H]2[C@@H]3[C@H](OCCCN)C[C@@H]4C[C@H](OCCCN)CC[C@]4(C)[C@H]3C[C@H](OCCCN)[C@]12C.Cl.Cl.Cl.Cl` [CSA-131], the MIC50 turned out to be 4 in data set [1]; 2 µg/mL in [2]; 4 µg/mL in data set [3]; 8 µg/mL in the data set on Haemophilus spp. (10); 4 µg/mL in the data set with Enterobacteriaceae (22); 4 µg/mL against Non-fermenters (22). For the same compound, the MIC90 was found to be 8 in data set [1]; 2 µg/mL in data set [2]; 4 µg/mL in [3]; 8 µg/mL in the data set on Haemophilus spp. (10); 4 µg/mL against Enterobacteriaceae (22); 4 µg/mL against Non-fermenters (22).
`CC(CCCO)C1CCC2C3C(OCCCN)CC4CC(OCCCN)CCC4(C)C3CC(OCCCN)C12C.Cl.Cl.Cl` (centres unmarked) [CSA-8]: in the data set with Pseudomonas aeruginosa, the “MBC P. aeruginosa” value was found to be 100 µg/mL and the “MIC P. aeruginosa” value was found to be 25 µg/mL. Besides, in the data set with Staphylococcus aureus, the “MBC S. aureus” value is 6.25 µg/mL and the “MIC S. aureus” value worked out at 3.125 µg/mL.
Regarding `CCCCCCCCOC(=O)CC[C@@H](C)[C@H]1CC[C@H]2[C@@H]3[C@H](OC(=O)CCN)C[C@@H]4C[C@H](OC(=O)CCN)CC[C@]4(C)[C@H]3C[C@H](OC(=O)CCN)[C@]12C` [CSA-44], in the data set with primary human MSC cells, the “Fold Regulation, IL1A” value was −6.0325 fold; the “Fold Regulation, IL1B” value is −28.5329 fold; the “Fold Regulation, IRAK2” value is on record as −31.8021 fold; the “Fold Regulation, NFKB1” value is −3.2891 fold. In the data set on primary human MSC cells, the “Fold Regulation, NFKB2” value is given as −2.2766 fold; the “Fold Regulation, NFKBIA” value is −52.206 fold; the “Fold Regulation, TLR2” value is listed as −15.7179 fold; the “Fold Regulation, TLR4” value is recorded as −2.977 fold. Moreover, in the data set with primary human MSC cells, the “Fold Regulation, TLR6” value is on record as −2.392 fold; the “Fold Regulation, TLR8” value was −8.2256 fold; the “Fold Regulation, TLR9” value is −1.8905 fold; the “Fold Regulation, TNF” value is −25.9588 fold. In the data set with primary human MSC cells, the “Fold Regulation, TNFRSF1A” value is listed as −2.2461 fold.
In the case of `CCCCCCCCCCCCNCCCC(C)C1CCC2C3C(OCCCN)CC4CC(OCCCN)CCC4(C)C3CC(OCCCN)C12C.O=S(=O)(O)c1cccc2c(S(=O)(=O)O)cccc12.O=S(=O)(O)c1cccc2c(S(=O)(=O)O)cccc12` (centres unmarked) [CSA-131 (bis-DNS salt)], in [4], the Solubility in cyanoacrylate result is reported as “insoluble”.
As to `CC(CCCNCCCNCCCN)C1CCC2C3C(OCCCN)CC4CC(OCCCN)CCC4(C)C3CC(OCCCN)C12C.Cl.Cl.Cl.Cl.Cl.Cl` (centres unmarked) [CSA-54], in the data set on Pseudomonas aeruginosa, the “MBC P. aeruginosa” value is 100 µg/mL and the “MIC P. aeruginosa” value amounted to 50 µg/mL. In the data set with Staphylococcus aureus, the “MBC S. aureus” value stood at 25 µg/mL and the “MIC S. aureus” value stood at 6.25 µg/mL.
For the compound `CCCCCN(CCCCC)CCCC(C)C1CCC2C3C(OCCCN)CC4CC(OCCCN)CCC4(C)C3CC(OCCCN)C12C.Cl.Cl.Cl.Cl` (centres unmarked) [CSA-90], in the data set with primary human MSC cells, the “Fold Regulation, IL1A” value is reported as −6.96 fold; the “Fold Regulation, IL1B” value was −3.6734 fold; the “Fold Regulation, IRAK2” value was −52.0069 fold; the “Fold Regulation, NFKB1” value is on record as −4.718 fold. For the same compound, in the data set on primary human MSC cells, the “Fold Regulation, NFKB2” value is given as −2.5474 fold; the “Fold Regulation, NFKBIA” value was −26.0352 fold; the “Fold Regulation, TLR2” value is given as −13.6933 fold; the “Fold Regulation, TLR4” value is listed as −3.4278 fold. Further, in the data set with primary human MSC cells, the “Fold Regulation, TLR6” value is on record as −2.0885 fold; the “Fold Regulation, TLR8” value was −4.1972 fold; the “Fold Regulation, TLR9” value is recorded as −1.8613 fold; the “Fold Regulation, TNF” value is given as −4.8514 fold. Also, the “Fold Regulation, TNFRSF1A” value with primary human MSC cells is listed as −7.3196 fold. Moreover, in the data set on Pseudomonas aeruginosa, the “MBC P. aeruginosa” value stood at 6.25 µg/mL and the “MIC P. aeruginosa” value came out at 6.25 µg/mL. In the data set with Staphylococcus aureus, the “MBC S. aureus” value is 1.56 µg/mL and the “MIC S. aureus” value amounted to 1.56 µg/mL.
Consider `CC(O)C1CCC2C3C(OCCCN)CC4CC(OCCCN)CCC4(C)C3CC(OCCCN)C12C.Cl.Cl.Cl` (centres unmarked) [CSA-11], for which, in the data set on Pseudomonas aeruginosa, the “MBC P. aeruginosa” value is above 200 µg/mL and the “MIC P. aeruginosa” value was above 200 µg/mL. Besides, in the data set with Staphylococcus aureus, the “MBC S. aureus” value amounted to 50 µg/mL and the “MIC S. aureus” value worked out at 50 µg/mL.
With `CCCCCCCCCOC(=O)CC[C@@H](C)[C@H]1CC[C@H]2[C@@H]3[C@H](OC(=O)CCN)C[C@@H]4C[C@H](OC(=O)CCN)CC[C@]4(C)[C@H]3C[C@H](OC(=O)CCN)[C@]12C` [CSA-145], in the data set with Pseudomonas aeruginosa, the “MBC P. aeruginosa” value was determined as 50 µg/mL (≈ 66.8 µM) and the “MIC P. aeruginosa” value was 12.5 µg/mL (≈ 16.7 µM). In addition, in the data set on Staphylococcus aureus, the “MBC S. aureus” value was 3.125 µg/mL (≈ 4.18 µM) and the “MIC S. aureus” value is 3.125 µg/mL (≈ 4.18 µM).
Consider `CCCCCCCCNCCC[C@@H](C)[C@H]1CC[C@H]2[C@@H]3[C@H](OCCCN)C[C@@H]4C[C@H](OCCCN)CC[C@]4(C)[C@H]3C[C@H](OCCCN)[C@]12C` [CSA-13], for which, in the data set on IL-6, the “Effect of treatment on kidney IL-6 levels” value is “significantly reduced”.
